In US12577273B2, “Small molecule modulators of gut bacterial bile acid metabolism” (priority 2019, dated 2026):
Where “and” joins values, the source holds several entries; their conditions need not be identical. Identical values can stand only once. Entries after “also recorded” stand apart in the source; their conditions may differ.

Legend:
B. longum BSH [1] = molecular target: T1, B. longum BSH (Bifidobacterium longum, UniProt Q9KK62); assay: Enzyme kinetics (ninhydrin assay), B. longum BSH; conditions: substrate of B. longum BSH
T1 sequence (Q9KK62 1-317): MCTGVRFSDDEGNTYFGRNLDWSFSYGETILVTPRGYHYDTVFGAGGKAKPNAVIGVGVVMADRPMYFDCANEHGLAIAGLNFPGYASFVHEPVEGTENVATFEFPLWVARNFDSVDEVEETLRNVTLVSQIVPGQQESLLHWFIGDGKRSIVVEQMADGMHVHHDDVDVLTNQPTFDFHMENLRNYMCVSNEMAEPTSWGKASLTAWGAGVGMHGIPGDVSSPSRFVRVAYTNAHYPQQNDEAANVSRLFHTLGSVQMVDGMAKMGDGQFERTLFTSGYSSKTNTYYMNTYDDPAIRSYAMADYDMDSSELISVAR
Procedure: (§1) Enzyme Kinetics. […] This solution was preheated to 37° C. in a water bath. 20 μL of a conjugated bile acid in DMSO at appropriate concentration was preheated to 37° C. in a water bath and added to the above solution. […] The cloudy solution was centrifuged at 4,200 g for 15 mins. 10 μL of the supernatant was added to 190 μL of ninhydrin mix (15 mL of 1% [wt/vol] ninhydrin in 0.5 M sodium citrate at pH 5.5, 36 mL glycerol and 6 mL 0.5 M sodium citrate buffer at pH 5.5) and the mixture was heated to 100° C. in a BioRad thermocycler for 18 mins. The obtained solution was cooled at 4° C. for 20 mins and absorbance was measured at 570 nm using a spectrophotometer (Molecular Devices).

B. theta BSH [2] = molecular target: T2, B. theta BSH (Bacteroides thetaiotaomicron, UniProt Q8A600); assay: Enzyme kinetics (ninhydrin assay), B. theta BSH; type: biochemical; conditions: for deconjugation of substrate by purified B. theta BSH (in words): ninhydrin-based assay
Procedure: as §1

B. theta BSH [3] = molecular target: T2, B. theta BSH; assay: Inhibitor screen using rBSH, B. theta BSH (UPLC-MS % deconjugation); conditions: 100 μM inhibitor; for % deconjugation of TDCA / % deconjugation of TUDCA / % deconjugation of TβMCA / % deconjugation of TCA: 200 nM rBSH, replicates 1-3; for inhibition of B. theta BSH (in words): 30 min preincubation, monitored over 21 hours
B. theta cultures = assay: BSH inhibition in growing B. theta cultures, single substrate (GUDCA or TUDCA); type: cell-based, Bacteroides thetaiotaomicron; conditions: 10 μM inhibitor; for deconjugation of GUDCA in growing B. theta cultures (in words): 100 μM GUDCA; for BSH inhibition in B. theta cultures compared to 7 (in words): 100 μM TUDCA
[4] = tested on: three Gram negative and three Gram positive strains of human gut bacteria; assay: BSH inhibition in growing cultures of six gut bacterial strains (overall statements); type: cell-based; conditions: 100 μM inhibitor, 100 μM conjugated bile acid mixture
[5] = tested on: BSH activity in conventional mouse feces; assay: Screen of inhibitors in conventional mouse feces; type: biochemical; conditions: 20 μM inhibitor, 30 min, then GCDCA-d4 100 μM, 18 hours
Procedure: Screen of Inhibitors in Conventional Mouse Feces. […] The tubes were then frozen in dry ice for 5 mins and upon thawing were diluted with an equal volume of methanol. […] The supernatant was removed into a clean eppendorf tube and centrifuged again. […] The concentration of product detected from these assays was reported directly.

B. longum BSH [6] = molecular target: T1, B. longum BSH; assay: Inhibitor screen using rBSH, B. longum BSH (UPLC-MS % deconjugation); type: biochemical, Bifidobacterium longum SBT2928; set-up: His6 (C); made in house; host or cells: Escherichia coli (as for the B. theta enzyme); conditions: 100 μM inhibitor; for % deconjugation of TCA / % deconjugation of TDCA / % deconjugation of TUDCA / % deconjugation of TβMCA: 200 nM rBSH, bile acid pool, replicates 1-3
Procedure: B. longum rBSH. Recombinant BSH from B. longum SBT2928 was expressed and purified as above, except 0.25 mM IPTG was used for protein expression and 1 mM TCEP for protein purification.
Inhibitor Screen Using rBSHs.

[7] = Table 1, substrate of B. Theta BSH, PBS pH 7.5, 37° C.
[8] = Table 3, substrate of B. theta BSH, mean ± SEM, n = 3
[9] = FIG. 2a, 2 hours, bile acid pool
[10] = FIG. 2a, 2 hours, pool of four tauro conjugated bile acids 25 μM each
[11] = FIG. 2a, 21 hours, bile acid pool
[12] = Supplementary FIG. 3a, 5 hours, bile acid pool

C[C@H](CCC(=O)NCCS(=O)(=O)O)[C@H]1CC[C@H]2[C@@H]3[C@@H](O)C[C@@H]4C[C@H](O)CC[C@]4(C)[C@H]3CC[C@]12C [TUDCA, tauroursodeoxycholic acid]
Kcat (B. longum BSH [1]; Table 1, PBS pH 7.5, 37° C.): 1.608 s⁻¹
Kcat (B. longum BSH [1]; Table 3, mean ± SEM, n = 3): 0.015 ± 0.0033 s⁻¹
Kcat (B. theta BSH [2]; [7]): 1.807 s⁻¹
Km (B. theta BSH [2]; [7]): 8.23 mM
Kcat (B. theta BSH [2]; [8]): 0.255 ± 0.013 s⁻¹
Km (B. theta BSH [2]; [8]): 8.2 ± 1 mM
deconjugation of substrate by purified B. theta BSH (in words) (B. theta BSH [2]): displayed a preference

C#CC(=O)CC[C@@H](C)[C@H]1CC[C@H]2[C@@H]3[C@H](O)C[C@@H]4C[C@H](O)CC[C@]4(C)[C@H]3CC[C@]12C [Compound 4]
% deconjugation of TDCA (B. theta BSH [3]; [9]): 97.26% and 96.13% and 94.56%
% deconjugation of TUDCA (B. theta BSH [3]; [9]): 94.07% and 91.62% and 89.81%
% deconjugation of TβMCA (B. theta BSH [3]; [9]): 32.07% and 29.34% and 22.69%
% deconjugation of TCA (B. theta BSH [3]; [10]): 0.47% and 1.15% and 0.30%
% deconjugation of TCA (B. theta BSH [3]; [11]): 1.50% and 0.85% and 1.80%
% deconjugation of TDCA (B. theta BSH [3]; [11]): 95.87% and 95.61% and 96.21%
% deconjugation of TUDCA (B. theta BSH [3]; [11]): 98.54% and 97.31% and 97.80%
% deconjugation of TβMCA (B. theta BSH [3]; [11]): 47.65% and 32.41% and 43.47%
% deconjugation of TCA (B. theta BSH [3]; [12]): 0.40% and 1.92% and 1.29%
% deconjugation of TDCA (B. theta BSH [3]; [12]): 99.59% and 99.50% and 99.01%
% deconjugation of TUDCA (B. theta BSH [3]; [12]): 98.43% and 98.54% and 97.17%
% deconjugation of TβMCA (B. theta BSH [3]; [12]): 26.17% and 45.65% and 37.57%

C[C@H](CCC(=O)NCCS(=O)(=O)O)[C@H]1CC[C@H]2[C@@H]3[C@H](O)C[C@@H]4C[C@H](O)CC[C@]4(C)[C@H]3CC[C@]12C [TCDCA, taurochenodeoxycholic acid]
Kcat (B. longum BSH [1]; Table 1, PBS pH 7.5, 37° C.): 1.807 s⁻¹
Km (B. longum BSH [1]; Table 1, PBS pH 7.5, 37° C.): 7.75 mM
Kcat (B. longum BSH [1]; Table 3, mean ± SEM, n = 3): 0.0767 ± 0.01 s⁻¹
Km (B. longum BSH [1]; Table 3, mean ± SEM, n = 3): 7 ± 2.3 mM
Kcat (B. theta BSH [2]; [7]): 1.69 s⁻¹
Km (B. theta BSH [2]; [7]): 2.86 mM
Kcat (B. theta BSH [2]; [8]): 0.0717 ± 0.01 s⁻¹
Km (B. theta BSH [2]; [8]): 2.9 ± 1.8 mM

C[C@H](CCC(=O)CF)[C@H]1CC[C@H]2[C@@H]3[C@H](O)C[C@@H]4C[C@H](O)CC[C@]4(C)[C@H]3C[C@H](O)[C@]12C [Compound 9]
deconjugation of GUDCA in growing B. theta cultures (in words) (B. theta cultures): significantly diminished activity to inhibit B. theta BSH
deconjugation of GUDCA in growing B. theta cultures (in words) (B. theta cultures; listed as compound 9): significant deconjugation was observed
BSH inhibition in B. theta cultures compared to 7 (in words) (B. theta cultures): less potent inhibitors of B. theta BSH than compound 7; also recorded: significantly reduced ability to inhibit BSH deconjugation

Cc1cc2nc3c(=O)[nH]c(=O)nc-3n(C[C@H](O)[C@H](O)[C@H](O)CO)c2cc1C [Riboflavin, riboflavin, reference compound]
deconjugation / BSH inhibition in cultures of the six bacterial strains (in words) [4]: neither riboflavin nor CAPE displayed significant inhibitory activity against any of the Gram negative strains
inhibition of B. theta BSH (in words) (B. theta BSH [3]): did not display any inhibitory activity

C[C@H](CCC(=O)NCCS(=O)(=O)O)[C@H]1CC[C@H]2[C@@H]3[C@H](O)C[C@@H]4C[C@H](O)CC[C@]4(C)[C@H]3C[C@H](O)[C@]12C [TCA, taurocholic acid]
Kcat (B. longum BSH [1]; Table 1, PBS pH 7.5, 37° C.): 1.82 s⁻¹
deconjugation of substrate by purified B. theta BSH (in words) (B. theta BSH [2]): did not deconjugate

CC(=O)CC[C@@H](C)[C@H]1CC[C@H]2[C@@H]3[C@H](O)C[C@@H]4C[C@H](O)CC[C@]4(C)[C@H]3CC[C@]12C [Compound 8]
BSH inhibition in B. theta cultures compared to 7 (in words) (B. theta cultures): less potent inhibitors of B. theta BSH than compound 7; also recorded: did not display BSH inhibition against either recombinant protein or B. theta cultures
inhibition of B. theta BSH (in words) (B. theta BSH [3]): did not display BSH inhibition; also recorded: did not display BSH inhibition against either recombinant protein or B. theta cultures

C[C@H](CCC(=O)NCCS(=O)(=O)O)[C@H]1CC[C@H]2[C@@H]3CC[C@@H]4C[C@H](O)CC[C@]4(C)[C@H]3C[C@H](O)[C@]12C [TDCA, taurodeoxycholic acid]
Kcat (B. longum BSH [1]; Table 1, PBS pH 7.5, 37° C.): 1.695 s⁻¹
Kcat (B. longum BSH [1]; Table 3, mean ± SEM, n = 3): 0.0583 ± 0.0017 s⁻¹
Kcat (B. theta BSH [2]; [7]): 1.682 s⁻¹
Km (B. theta BSH [2]; [7]): 3.35 mM
Kcat (B. theta BSH [2]; [8]): 0.215 ± 0.01 s⁻¹
Km (B. theta BSH [2]; [8]): 3.4 ± 0.6 mM
deconjugation of substrate by purified B. theta BSH (in words) (B. theta BSH [2]): preference for TDCA deconjugation

C[C@H](CCN=C=S)[C@H]1CC[C@H]2[C@@H]3[C@H](O)C[C@@H]4C[C@H](O)CC[C@]4(C)[C@H]3CC[C@]12C [Compound 1]
inhibition of B. theta BSH (in words) (B. theta BSH [3]): modest inhibition
% deconjugation of TDCA (B. theta BSH [3]; [9]): 51.40% and 46.10% and 43.43%
% deconjugation of TUDCA (B. theta BSH [3]; [9]): 37.96% and 35.92% and 33.34%
% deconjugation of TβMCA (B. theta BSH [3]; [9]): 3.72% and 3.29% and 3.28%
% deconjugation of TCA (B. theta BSH [3]; [10]): 0.12% and 0.17% and 0.29%
% deconjugation of TCA (B. theta BSH [3]; [11]): 0.12% and 0.17% and 0.15%
% deconjugation of TDCA (B. theta BSH [3]; [11]): 45.18% and 51.87% and 45.19%
% deconjugation of TUDCA (B. theta BSH [3]; [11]): 34.40% and 41.24% and 37.45%
% deconjugation of TβMCA (B. theta BSH [3]; [11]): 3.18% and 4.28% and 3.11%
% deconjugation of TCA (B. theta BSH [3]; [12]): 0.25% and 0.00% and 0.21%
% deconjugation of TDCA (B. theta BSH [3]; [12]): 52.56% and 51.54% and 45.63%
% deconjugation of TUDCA (B. theta BSH [3]; [12]): 38.73% and 40.02% and 35.99%
% deconjugation of TβMCA (B. theta BSH [3]; [12]): 4.42% and 4.47% and 3.37%
BSH activity in resuspended conventional mouse feces (in words) [5]: moderate BSH inhibition; also recorded: decreased deconjugation
inhibition of B. longum BSH (in words) (B. longum BSH [6]; 2 h, 5 h and 21 h timepoints): modest inhibition
% deconjugation of TCA (B. longum BSH [6]; FIG. 2b, 2 hours): 0.10% and 0.89% and 0.43%
% deconjugation of TDCA (B. longum BSH [6]; FIG. 2b, 2 hours): 7.25% and 4.34% and 2.20%
% deconjugation of TUDCA (B. longum BSH [6]; FIG. 2b, 2 hours): 2.12% and 1.09% and 0.61%
% deconjugation of TβMCA (B. longum BSH [6]; FIG. 2b, 2 hours): 2.49% and 0.05% and 0.03%
% deconjugation of TCA (B. longum BSH [6]; FIG. 2b, 21 hours): 9.02% and 3.00% and 8.03%
% deconjugation of TDCA (B. longum BSH [6]; FIG. 2b, 21 hours): 23.33% and 14.91% and 20.42%
% deconjugation of TUDCA (B. longum BSH [6]; FIG. 2b, 21 hours): 4.57% and 2.48% and 3.66%
% deconjugation of TβMCA (B. longum BSH [6]; FIG. 2b, 21 hours): 0.21% and 0.13% and 0.28%
% deconjugation of TCA (B. longum BSH [6]; Supplementary FIG. 3b, 5 hours): 4.13% and 4.57% and 4.31%
% deconjugation of TDCA (B. longum BSH [6]; Supplementary FIG. 3b, 5 hours): 9.85% and 11.26% and 11.96%
% deconjugation of TUDCA (B. longum BSH [6]; Supplementary FIG. 3b, 5 hours): 2.44% and 2.49% and 2.64%
% deconjugation of TβMCA (B. longum BSH [6]; Supplementary FIG. 3b, 5 hours): 0.10% and 0.11% (2×)
